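All cell lines were grown in 96-well plates and treated with compound for 48 hours. At the GI50, growth is halved.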 Calls of active or inactive are those of the source. Rule as the data show it: active = GI50 up to about 1.1 µM and inactive = higher.
Columns and labels:
Assay in all cases: NCI-60 cell line screen, 48 h
[1] = tested on: HCT-116
[2] = tested on: EKVX
[3] = tested on: DU-145
[4] = tested on: HCC 2998
[5] = tested on: CAKI-1
[6] = tested on: OVCAR-4
[7] = tested on: NCI-H23
[8] = tested on: SF-268
[9] = tested on: HCT-15
[10] = tested on: MCF7
[11] = tested on: SN12C
[12] = tested on: UO-31
[13] = tested on: RXF 393
[14] = tested on: MOLT-4
[15] = tested on: A498
[16] = tested on: MDA-N
[17] = tested on: NCI-H226
[18] = tested on: NCI-H460
[19] = tested on: U-251
[20] = tested on: Malme-3M

For CO[C@H]1[C@@H](O)[C@@H](C)O[C@@H](O[C@H]2CC[C@@]3(C)[C@H](CC[C@@H]4[C@@H]3CC[C@]3(C)[C@@H](C5=CC(=O)OC5)CC[C@]43O)C2)[C@@H]1O [ODOROSIDE H], the GI50 [1] was 4.82 nM (active), the GI50 [2] was 4.74 nM (active) and the GI50 [3] was 3.77 nM (active). For the same molecule, the GI50 [4] was 14.9 nM (active), the GI50 [5] was 4.8 nM (active) and the GI50 [6] was 5.83 nM (active). The GI50 [7] was 4.62 nM (active), the GI50 [8] was 4.22 nM (active) and the GI50 [9] was 7.66 nM. The GI50 [10] was 7.73 nM (active), the GI50 [11] was 4.67 nM (active) and the GI50 [12] was 4.54 nM (active). The GI50 [13] was 3.94 nM (active), the GI50 [14] was < 2.5 nM (active) and the GI50 [15] was 78.7 nM (active). The GI50 [16] was 7.67 nM (active), the GI50 [17] was 48.8 nM (active) and the GI50 [18] was 3 nM (active). The GI50 [19] was 8.36 nM (active) and the GI50 [20] was 4.41 nM (active).

Reference: ChEMBL document CHEMBL1201862, “PubChem BioAssay data set” (2004)
